Experimental data: ChEMBL document CHEMBL1201862, “PubChem BioAssay data set” (2004)
Calls of active or inactive are those of the source.

What was measured:
[1] = HPDE-C7 pancreatic duct cell viability loss – fluorescence, HTS (AID 430); assay type: functional, cell-based; conditions: Homo sapiens
Streptococcus = experiment: GAS UMAA2166 growth inhibition – luminescence, BacTiterGlo, counter-screen for streptokinase expression inhibitor project, dose response (AID 1915); assay type: functional, organism-based;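 also: potency for reduction of bacterial viability or growth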
[2] = target: G-protein coupled receptor 55 (Homo sapiens, UniProt Q9Y2T6); experiment: selective activators of receptor GPR55 – imaging, U2OS cells, beta-arrestin-GFP redistribution, primary screen (AID 1961); assay type: functional
G-protein coupled receptor 55, sequence (Q9Y2T6 whole entry): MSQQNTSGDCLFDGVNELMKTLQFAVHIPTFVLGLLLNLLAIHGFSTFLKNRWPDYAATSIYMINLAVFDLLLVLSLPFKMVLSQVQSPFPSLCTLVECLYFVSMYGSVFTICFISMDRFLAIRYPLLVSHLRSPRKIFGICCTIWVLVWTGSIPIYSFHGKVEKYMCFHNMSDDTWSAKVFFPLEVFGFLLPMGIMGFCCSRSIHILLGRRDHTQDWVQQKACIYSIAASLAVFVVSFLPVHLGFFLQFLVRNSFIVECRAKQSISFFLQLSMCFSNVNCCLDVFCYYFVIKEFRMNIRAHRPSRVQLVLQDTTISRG

[3] = target: T1, Calpain-2 catalytic subunit (Sus scrofa, UniProt P43367); experiment: m-calpain protease blockers, concentration series – biochemical, fluorogenic peptide substrate, dose response (AID 1420); assay type: functional
T1 sequence (P43367 whole entry): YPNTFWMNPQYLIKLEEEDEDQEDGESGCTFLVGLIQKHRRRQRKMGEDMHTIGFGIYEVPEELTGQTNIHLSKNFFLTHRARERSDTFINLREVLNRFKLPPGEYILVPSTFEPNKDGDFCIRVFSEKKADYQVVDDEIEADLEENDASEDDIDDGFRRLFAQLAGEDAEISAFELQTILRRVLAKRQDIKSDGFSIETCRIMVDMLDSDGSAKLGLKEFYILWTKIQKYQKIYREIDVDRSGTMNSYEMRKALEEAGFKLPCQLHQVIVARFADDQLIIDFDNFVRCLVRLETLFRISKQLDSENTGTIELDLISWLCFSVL

Streptokinase A = target: T2, Streptokinase A (Streptococcus pyogenes serotype M1, UniProt P10520); experiment: viability-normalized secreted streptokinase activity reduction – plasminogen activation absorbance, OD405, dose response (AID 1914); assay type: functional, Streptococcus pyogenes M1 GAS;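 also: secreted streptokinase activity via plasminogen activation per viability signal from cell pellet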
T2 sequence (P10520 whole entry): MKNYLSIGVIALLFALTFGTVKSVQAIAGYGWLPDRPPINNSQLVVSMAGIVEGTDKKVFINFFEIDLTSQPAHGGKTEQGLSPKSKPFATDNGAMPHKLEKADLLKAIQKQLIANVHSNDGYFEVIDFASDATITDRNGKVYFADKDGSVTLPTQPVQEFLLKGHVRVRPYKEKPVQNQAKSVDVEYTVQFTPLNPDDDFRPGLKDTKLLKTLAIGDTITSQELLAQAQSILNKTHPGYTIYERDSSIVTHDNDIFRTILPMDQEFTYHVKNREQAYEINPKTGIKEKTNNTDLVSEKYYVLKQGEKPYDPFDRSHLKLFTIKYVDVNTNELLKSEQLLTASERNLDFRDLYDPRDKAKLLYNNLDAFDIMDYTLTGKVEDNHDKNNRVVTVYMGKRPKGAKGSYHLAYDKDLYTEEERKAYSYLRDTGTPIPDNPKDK

[4] = target: Disintegrin and metalloproteinase domain-containing protein 17 (Homo sapiens, UniProt P78536); experiment: exosite inhibitors of ADAM17, dose response, biochemical (AID 743260)
Disintegrin and metalloproteinase domain-containing protein 17, sequence (P78536 whole entry, the tested form may be a part): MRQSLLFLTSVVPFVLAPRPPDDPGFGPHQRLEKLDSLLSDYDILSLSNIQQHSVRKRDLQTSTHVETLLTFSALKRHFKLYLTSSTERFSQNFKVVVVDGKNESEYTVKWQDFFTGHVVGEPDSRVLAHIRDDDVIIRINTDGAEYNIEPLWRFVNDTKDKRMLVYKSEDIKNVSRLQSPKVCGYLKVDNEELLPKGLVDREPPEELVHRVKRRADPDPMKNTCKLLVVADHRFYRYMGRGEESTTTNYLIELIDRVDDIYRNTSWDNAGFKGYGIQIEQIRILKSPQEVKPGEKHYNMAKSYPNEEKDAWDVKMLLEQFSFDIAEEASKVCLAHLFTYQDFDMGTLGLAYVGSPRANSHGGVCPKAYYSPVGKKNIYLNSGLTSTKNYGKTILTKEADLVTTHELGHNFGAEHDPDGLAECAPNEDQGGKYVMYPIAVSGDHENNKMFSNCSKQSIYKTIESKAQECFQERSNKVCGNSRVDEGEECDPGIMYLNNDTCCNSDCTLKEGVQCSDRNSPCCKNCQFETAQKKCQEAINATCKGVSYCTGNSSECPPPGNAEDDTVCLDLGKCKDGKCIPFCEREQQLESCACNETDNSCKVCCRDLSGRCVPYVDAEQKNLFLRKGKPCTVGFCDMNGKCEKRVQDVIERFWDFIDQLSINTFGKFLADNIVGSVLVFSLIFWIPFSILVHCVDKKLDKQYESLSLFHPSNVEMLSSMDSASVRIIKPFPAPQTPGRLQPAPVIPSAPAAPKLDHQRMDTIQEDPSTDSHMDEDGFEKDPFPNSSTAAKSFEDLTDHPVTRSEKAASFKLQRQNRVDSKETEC

[5] = target: T3, Corticotropin-releasing factor receptor 2/Corticotropin-releasing factor-binding protein (Homo sapiens, UniProt P24387+Q13324); experiment: Dose Response confirmation of uHTS hits for small molecule antagonists of the CRF-binding protein and CRF-R2 receptor complex.; assay type: functional; conditions: read-out: IC50_Mean
T3 sequence (Q13324 whole entry): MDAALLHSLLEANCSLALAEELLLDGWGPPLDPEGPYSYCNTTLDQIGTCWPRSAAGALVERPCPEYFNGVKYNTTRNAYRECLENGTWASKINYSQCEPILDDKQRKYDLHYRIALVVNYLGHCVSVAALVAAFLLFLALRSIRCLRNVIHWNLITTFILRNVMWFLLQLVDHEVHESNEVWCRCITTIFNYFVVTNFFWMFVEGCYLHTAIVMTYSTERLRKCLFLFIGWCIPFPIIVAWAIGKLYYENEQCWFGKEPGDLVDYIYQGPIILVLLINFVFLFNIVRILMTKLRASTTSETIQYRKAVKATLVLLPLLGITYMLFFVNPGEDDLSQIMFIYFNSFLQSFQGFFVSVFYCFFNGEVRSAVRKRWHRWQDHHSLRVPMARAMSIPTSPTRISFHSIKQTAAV
T3 sequence (P24387 whole entry): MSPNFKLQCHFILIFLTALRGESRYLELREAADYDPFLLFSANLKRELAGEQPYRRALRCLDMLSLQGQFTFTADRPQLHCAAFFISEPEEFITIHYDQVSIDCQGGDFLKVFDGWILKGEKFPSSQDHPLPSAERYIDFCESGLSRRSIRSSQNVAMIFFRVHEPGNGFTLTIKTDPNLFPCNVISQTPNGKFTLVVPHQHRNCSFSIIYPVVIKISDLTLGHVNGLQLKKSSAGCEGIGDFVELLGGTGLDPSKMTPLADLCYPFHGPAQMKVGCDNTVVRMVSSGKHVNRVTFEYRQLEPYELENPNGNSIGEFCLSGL

[6] = target: T3, Corticotropin-releasing factor receptor 2/Corticotropin-releasing factor-binding protein; experiment: activators of CRF receptor 2 with binding protein – uHTS hits, confirmation (AID 602473); assay type: functional; conditions: read-out: EC50_Mean
[7] = target: Heat shock protein HSP 90-alpha (Homo sapiens, UniProt P07900); assay type: functional, organism-based
[8] = test system: Streptococcus sp. 'group A'; experiment: Streptococcus pyogenes SK(-)GAS viability under kanamycin – luminescence, BacTiterGlo, confirmation, counter-screen for streptokinase expression inhibitor project, dose response (AID 1900); assay type: functional, organism-based
[9] = viability loss of HPDE-C7K cells – cell-based, fluorescence, HTS, primary screen (AID 431); assay type: functional; conditions: Homo sapiens
Hexokinase = Hexokinase (Trypanosoma brucei, UniProt Q38C41); experiment: Confirmation assay for inhibitors of Trypanosoma brucei hexokinase 1-Analogue-first series. [Related pubchem assays (depositor defined):AID1430, AID1632, AID2516, AID2560, AID2579, AID2600, AID449725, AID492951]; assay type: functional
Hexokinase, sequence (Q38C41 whole entry): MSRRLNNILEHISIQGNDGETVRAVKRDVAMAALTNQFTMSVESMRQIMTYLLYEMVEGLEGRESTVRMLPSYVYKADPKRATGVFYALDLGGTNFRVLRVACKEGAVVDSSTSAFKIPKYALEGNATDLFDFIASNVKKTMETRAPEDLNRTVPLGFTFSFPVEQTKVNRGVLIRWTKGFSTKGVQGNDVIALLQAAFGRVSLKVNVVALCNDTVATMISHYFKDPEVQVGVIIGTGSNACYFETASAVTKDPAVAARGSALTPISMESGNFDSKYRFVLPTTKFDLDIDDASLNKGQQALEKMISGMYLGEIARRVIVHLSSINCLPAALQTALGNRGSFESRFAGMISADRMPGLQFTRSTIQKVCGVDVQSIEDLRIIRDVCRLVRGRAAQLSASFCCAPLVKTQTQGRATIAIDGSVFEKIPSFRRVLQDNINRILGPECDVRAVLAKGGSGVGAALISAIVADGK

[10] = target: T4, Tyrosine-protein phosphatase non-receptor type 7 (Homo sapiens, UniProt P35236); experiment: redox-active compounds inhibiting HePTP phosphatase – biochemical, fluorescence, mechanism study (AID 2068); assay type: functional
T4 sequence (P35236 whole entry): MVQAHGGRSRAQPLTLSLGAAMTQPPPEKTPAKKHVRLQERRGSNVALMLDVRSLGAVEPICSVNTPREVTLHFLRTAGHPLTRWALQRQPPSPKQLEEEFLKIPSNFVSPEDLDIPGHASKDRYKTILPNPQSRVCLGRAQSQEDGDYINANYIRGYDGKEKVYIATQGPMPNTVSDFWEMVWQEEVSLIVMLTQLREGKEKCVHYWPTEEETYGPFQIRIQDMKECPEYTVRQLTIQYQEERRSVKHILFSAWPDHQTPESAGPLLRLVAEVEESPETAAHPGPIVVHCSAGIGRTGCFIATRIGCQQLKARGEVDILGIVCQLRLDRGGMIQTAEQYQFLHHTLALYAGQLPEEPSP

For `CCCOC(=O)c1ccc(Oc2c[nH]nc2-c2ccc(OCC)cc2O)cc1`, the EC50 [1] was 6.6 µM (active), the EC50 (Streptococcus) was 33.8 µM (active) and the EC50 [2] was > 32 µM (inactive). For the same compound, the IC50 [3] was 19.6 µM (not active), the EC50 (Streptokinase A) was > 150 µM (not active) and the IC50 [4] was > 69.5 µM (inactive). For the same compound, the IC50 [5] was > 47.1 µM (inactive), the EC50 [6] was > 53 µM (inactive) and the AC50 [7] was 7.92 µM (active). The EC50 [8] was 8.69 µM (active) and the EC50 [9] was 6.96 µM (active).

For `O=c1c2cc(Br)ccc2sn1-c1ccccc1`, the IC50 (Hexokinase) was > 25 µM (inactive).

For `CCN(CC)C(=O)C1CCCN(C(=O)Nc2ccc3nc(-c4ccco4)c(-c4ccco4)nc3c2)C1` (stereo not given), the IC50 [10] was 2.66 µM (active).

With `CCCN(CCC)Cc1c(C(=O)N/N=C/c2c[nH]c3ccccc23)nnn1-c1nonc1N` the EC50 [2] was 0.905 µM (active).

In the case of `COc1ccc(C(=O)NCC(=O)O)cc1`, the IC50 (Hexokinase) is reported as > 25 µM (inactive).
